This is an account of results in patent US20170121344A1 (Siga Technologies, Inc., priority 2009, published 2017).

This assay relates to Dengue-2 (Strain New Guinea C). Briefly: Viral yield assay against Dengue-2 in Vero cells. It counts as cell-based, Dengue virus. To be noted: Dengue virus. An outline of the steps: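 Yield reduction, Vero; MOI 0.1; compound vs DMSO; 37° C; harvest 48 h p.i.; titer on Vero; EC50 fitted. Other serotypes run the same way.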
Setting [1] is: DENV2, viral yield assay, Vero cells, MOI 0.1, 48 hours post infection, read-out: Activity (EC50 in μM) DENV-2.
[2] abbreviates: Vero, 48 h, read-out: Activity (EC50 class) against Dengue-2 Virus in Vero cells.
Where [3] appears, read: Vero cells, MOI 0.1, harvested 48 hours post infection, read-out: Activity (EC50 class) against Dengue-2 Virus in Vero cells.

SMILES strings stand for the structures. Like-named read-outs stand apart in the source and are kept apart here.

For the molecule `Cc1ccc(-c2ccc3c(N)c(C(=O)Nc4ccccc4[N+](=O)[O-])sc3n2)cc1` [Compound 639, 3-amino-N-(2-nitrophenyl)-6-(p-tolyl) thieno[2,3-b]pyridine-2-carboxamide], under setting [1], the EC50 (usually the concentration at which the effect is half-maximal) was under 5 µM.
In the case of `Nc1c(C(=O)Nc2cc(Cl)ccc2Cl)sc2nc(-c3ccc(Cl)cc3)ccc12` [Compound 347, 3-amino-6-(4-chlorophenyl)-N-(2,5-dichloro-phenyl)thieno [2,3-b]pyridine-2-carboxamide], under setting [1], the EC50 is under 5 µM.
As to `N#Cc1cc2c(N)c(C(=O)Nc3ccccc3Br)sc2nc1N` [Compound 134, 3,6-Diamino-5-cyano-thieno[2,3-b]pyridine-2-carboxylic acid (2-bromo-phenyl)-amide], the EC50 under setting [2] was over 25 µM.
As for `Cc1cc(C)c2c(C)c(C(=O)Nc3ccc4c(c3)OCCO4)sc2n1` [Compound 396, N-(2,3-dihydro-1,4-benzodioxin-6-yl)-3,4,6-trimethyl-thieno[2,3-b]pyridine-2-carboxamide], the EC50 under setting [1] was in the range of 5 to 25 µM.
Still for that read-out and setting: to `Nc1c(C(=O)Nc2ccc(Cl)c(C(F)(F)F)c2)sc2nc(-c3cccs3)ccc12` [Compound 443, 3-amino-N-[4-chloro-3-(trifluoromethyl)phenyl]-6-(2-thienyl) thieno[2,3-b]pyridine-2-carboxamide] belongs under 5 µM.
Take `C=CCc1c(C)nc2sc(C(=O)Nc3ccc(Br)cc3)c(N)c2c1C` [Compound 216, 5-Allyl-3-amino-4,6-dimethyl-thieno[2,3-b]pyridine-2-carboxylic acid (4-bromo-phenyl)-amide]: the EC50 under setting [3] is over 25 µM.
On the same count and under the same terms, to `Nc1c(C(=O)Nc2nnc(-c3ccccc3)s2)sc2nc3c(cc12)CCC3` [Compound 88, 3-Amino-6,7-dihydro-5H-cyclopenta[b]thieno[3,2-e]pyridine-2-carboxylic acid (5-phenyl-[1,3,4]thiadiazol-2-yl)-amide] belongs 5 to 25 µM.
On to `NCCCNc1c(C(=O)Nc2nnc(-c3ccccc3)s2)sc2nc3c(cc12)CCCCC3` [Compound 313, 3-((3-aminopropyl)amino)-N-(5-phenyl-1,3,4-thiadiazol-2-yl)-6,7,8,9-tetrahydro-5H-cyclohepta[b]thieno[3,2-e]pyridine-2-carboxamide], for which the EC50 (DENV2, Vero cells, read-out: Activity (EC50 in μM) DENV-2) is under 5 µM.
`COc1cccc(-c2ccc3c(N)c(C(=O)Nc4ccc(F)c(F)c4)sc3n2)c1` [Compound 525, 3-amino-N-(3,4-difluorophenyl)-6-(3-methoxyphenyl)thieno[2,3-b]pyridine-2-carboxamide]: under setting [1], the EC50 is under 5 µM.
The same measure, in the same setting: the figure for `Cc1ccc(-c2ccc3c(N)c(C(=O)Nc4ccccc4)sc3n2)cc1` [Compound 642, 3-amino-N-phenyl-6-(p-tolyl)thieno[2,3-b]pyridine-2-carboxamide] is under 5 µM.
For the molecule `CCCCNC(=O)c1sc2nc3c(cc2c1NC(C)=O)COC(C)(C)C3` [Compound 237, 3-Acetylamino-7,7-dimethyl-7,8-dihydro-5H-pyrano[4,3-b]thieno[3,2-e]pyridine-2-carboxylic acid butylamide], the EC50 under setting [3] is over 25 µM.
In the case of `C=CCc1c(C)nc2sc(C(=O)Nc3ccc([N+](=O)[O-])cc3)c(N)c2c1C` [Compound 225, 5-Allyl-3-amino-4,6-dimethyl-thieno[2,3-b]pyridine-2-carboxylic acid (4-nitro-phenyl)-amide], under setting [3], the EC50 was over 25 µM.
In the case of `CC(C)N1CCc2nc3sc(C(=O)NCc4ccc5c(c4)OCO5)c(N)c3cc2C1` [Compound 26, 3-Amino-6-isopropyl-5,6,7,8-tetrahydro-thieno[2,3-b][1,6]naphthyridine-2-carboxylic acid (benzo[1,3]dioxol-5-ylmethyl)-amide], the EC50 under setting [2] was under 5 µM.
On to `Cc1ccc(C)c(NC(=O)c2sc3nc(-c4ccc5c(c4)OCO5)ccc3c2N)c1` [Compound 588, 3-amino-6-(1,3-benzodioxol-5-yl)-N-(2,5-dimethylphenyl)thieno[2,3-b]pyridine-2-carboxamide], for which the 50% effective concentration (EC50) under setting [1] is under 5 µM.
As to `COc1ccc(NC(=O)c2sc3nc(-c4ccc(OC)c(OC)c4)ccc3c2N)c(OC)c1` [Compound 536, 3-amino-N-(2,4-dimethoxyphenyl)-6-(3,4-dimethoxyphenyl)thieno[2,3-b]pyridine-2-carboxamide], the EC50 under setting [1] was under 5 µM.
On to `Nc1c(C(=O)Nc2nccs2)sc2nc3c(c(-c4ccco4)c12)CCCC3` [Compound 86, 3-Amino-4-furan-2-yl-5,6,7,8-tetrahydro-thieno[2,3-b]quinoline-2-carboxylic acid thiazol-2-ylamide], for which the EC50 under setting [3] fell in the range of 5 to 25 µM.
As for `Nc1c(C(=O)Nc2ccc(S(=O)(=O)O)cc2)sc2nc(-c3ccc(Cl)cc3)ccc12` [Compound 346, 4-[[3-amino-6-(4-chlorophenyl)thieno[2,3-b]pyridine-2-carbonyl]amino]benzenesulfonic acid], the EC50 under setting [1] is under 5 µM.
Same read-out and setting: to `COc1cccc(-c2ccc3c(N)c(C(=O)Nc4cc(C)ccc4C)sc3n2)c1` [Compound 626, 3-amino-N-(2,5-dimethylphenyl)-6-(3-methoxyphenyl)thieno[2,3-b]pyridine-2-carboxamide] belongs under 5 µM.
For `CCN(CC)c1ccc(NC(=O)c2sc3nc4c(cc3c2N)CN(C)CC4)cc1` [Compound 276, 3-Amino-6-methyl-5,6,7,8-tetrahydro-thieno[2,3-b][1,6]naphthyridine-2-carboxylic acid (4-diethylamino-phenyl)-amide], the EC50 under setting [3] was over 25 µM.
In the case of `N#Cc1cc2c(N)c(C(=O)Nc3ccccc3C(F)(F)F)sc2nc1N` [Compound 130, 3,6-Diamino-5-cyano-thieno[2,3-b]pyridine-2-carboxylic acid (2-trifluoromethyl-phenyl)-amide], the half-maximal effective concentration (EC50) under setting [3] was over 25 µM.
`CCCCOc1ccc(NC(=O)c2sc3nc(N)c(C#N)cc3c2N)cc1` [Compound 70, 3,6-Diamino-5-cyano-thieno[2,3-b]pyridine-2-carboxylic acid (4-butoxy-phenyl)-amide]: under setting [2], the EC50 lay within 5 to 25 µM.
For the molecule `CN1CCc2nc3sc(C(=O)Nc4cc(Cl)ccc4Cl)c(N)c3cc2C1` [Compound 44, 3-Amino-6-methyl-5,6,7,8-tetrahydro-thieno[2,3-b][1,6]naphthyridine-2-carboxylic acid (2,5-dichloro-phenyl)-amide], the EC50 under setting [3] is under 5 µM.
In the case of `CN1CCc2nc3sc(C(=O)Nc4ccc5c(c4)OCO5)c(N)c3cc2C1` [Compound 33, 3-Amino-6-methyl-5,6,7,8-tetrahydro-thieno[2,3-b][1,6]naphthyridine-2-carboxylic acid benzo[1,3]dioxol-5-ylamide], the EC50 under setting [3] was under 5 µM.
Turning to `COc1ccc(CNC(=O)c2sc3nc4c(c(C(F)(F)F)c3c2N)CN(C(C)=O)CC4)cc1` [Compound 262, 6-Acetyl-3-amino-4-trifluoromethyl-5,6,7,8-tetrahydro-thieno[2,3-b][1,6]naphthyridine-2-carboxylic acid 4-methoxy-benzylamide], the EC50 under setting [2] is over 25 µM.
Take `O=C(Nc1cccc(C(F)(F)F)c1)c1sc2ncccc2c1OCc1ccc(Cl)c(Cl)c1` [Compound 377, 3-[(3,4-dichlorophenyl)methoxy]-N-[3-(trifluoromethyl)phenyl]thieno[2,3-b] pyridine-2-carboxamide]: under setting [1], the concentration for a half-maximal effect (EC50) is under 5 µM.
Take `CCN1CCc2nc3sc(C(=O)N4CCc5ccccc5C4)c(N)c3cc2C1` [Compound 22, (3-Amino-6-ethyl-5,6,7,8-tetrahydro-thieno[2,3-b][1,6]naphthyridin-2-yl)-(3,4-dihydro-1H-isoquinolin-2-yl)-methanone]: the EC50 under setting [2] is under 5 µM.
